The test system of assay [1] is human leukemic cell line HL-60. The assay can be described thus: Cell differentiation in HL-60 assay (NBT reduction). It is filed as cell-based. The note with it: compared with calcitriol. On the procedure: The vitamin D compounds to be investigated are dissolved in ethanol in concentrations ranging from 10^-12 to 10^-6 M and tested for their capacity to induce cell differentiation in a HL-60 assay. In this assay, biochemical examination of the human leukemic cell line HL-60 is performed, in order to establish whether cell differentiation has taken place.
Differentiation is expressed as the maturation parameter nitroblue tetrazolium (NBT) reduction. After culturing with the known calcitriol or with the vitamin D compounds to be investigated, the percentage of cells containing black formazan deposits is determined. An increase in the percentage of NBT reducing cells indicates an increase in cell differentiation.
Proliferation and vitality of the cell cultures are established by counting the number of cells and by the trypan blue exclusion method.

The subject of assay [2] is Vitamin D binding protein (DBP). The assay can be described thus: Affinity to vitamin D binding protein (competition with 3H-1α,25-DHCC). The note with it: DBP purified from total human serum. As for the experimental part:
Vitamin D binding protein (DBP) is the specific carrier for vitamin D and its metabolites in blood. The biological activity of vitamin D compounds depends on their binding to DBP, because strong binding to DBP will reduce the intracellular access to the VDR. Binding to the DBP may also influence the half-life of the vitamin D derivatives in circulation. Weak binders are rapidly metabolized, which is a favourable aspect in topical application.
In the assay, DBP is incubated with ^3 H-1α,25-DHCC and 1α,25-DHCC or with the vitamin D compounds to be investigated. To this purpose, the vitamin compounds are dissolved in ethanol in concentrations ranging from 10^-11 to […]. The percentage bound/unbound ^3 H-1α,25-DHCC is then calculated. DBP is purified from total human serum. Both 24,24-dihomo-.increment.(24-24a)-calcitriol and 24,24-dihomo-.increment.(24a-24b)-calcitriol are much weaker binders to the DBP than calcitriol (2% and 3.5% respectively).

Assay [3] addresses T1, calf thymus intracellular vitamin D receptor (VDR) (Bos taurus, UniProt Q28037).
T1 construct: calf thymus intracellular vitamin D receptor (VDR); from tissue; host or cells: calf thymus
T1 sequence (Q28037 1-426): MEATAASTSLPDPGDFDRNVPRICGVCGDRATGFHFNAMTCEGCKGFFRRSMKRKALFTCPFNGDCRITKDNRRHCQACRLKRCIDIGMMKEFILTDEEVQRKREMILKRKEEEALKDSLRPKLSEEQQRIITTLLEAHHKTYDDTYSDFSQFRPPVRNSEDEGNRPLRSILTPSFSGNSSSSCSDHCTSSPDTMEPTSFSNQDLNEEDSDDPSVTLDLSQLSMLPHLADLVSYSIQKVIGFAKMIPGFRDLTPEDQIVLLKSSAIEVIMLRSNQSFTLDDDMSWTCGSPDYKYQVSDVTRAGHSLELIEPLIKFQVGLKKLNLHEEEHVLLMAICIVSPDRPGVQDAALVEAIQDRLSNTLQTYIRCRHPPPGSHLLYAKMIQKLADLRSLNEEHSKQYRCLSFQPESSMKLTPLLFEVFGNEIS
The assay can be described thus: Affinity to intracellular vitamin D receptor (displacement of 3H-1α,25-DHCC). It is filed as binding. From the text:
In this assay, ^3 H-1α,25-dihydroxycholecalciferol (^3 H-1α,25-DHCC), which is specifically bound to the VDR, is replaced by the tested compounds. […] 9 times that of calcitriol. A high affinity towards the VDR is indicative for biologically active compounds.

With `C=C1/C(=C\C=C2/CCC[C@]3(C)[C@@H]([C@H](C)CC/C=C/CC(C)(C)O)CC[C@@H]23)C[C@@H](O)C[C@@H]1O` [24,24-dihomo-.increment.(24-24a)calcitriol], the “activity in inducing differentiation of HL-60 cells, times less active than calcitriol” value in assay [1] stood at 4 times less active. Further, the “binding to the DBP relative to calcitriol” value in assay [2] was 2%. Moreover, in assay [3] (relative to calcitriol), the “affinity towards the VDR relative to calcitriol” value is reported as at most 1%.
Regarding `C=C1/C(=C\C=C2/CCC[C@]3(C)[C@@H]([C@H](C)CCCC(C)(C)O)CC[C@@H]23)C[C@@H](O)C[C@@H]1O` [Calcitriol, calcitriol], in assay [1], the “activity in inducing differentiation and maturation of the HL-60 cells (in words)” value is recorded as “equally active”.
Consider `C=C1/C(=C\C=C2/CCC[C@]3(C)[C@@H]([C@H](C)CCC/C=C/C(C)(C)O)CC[C@@H]23)C[C@@H](O)C[C@@H]1O` [Compound 16, (5Z,7E)-(1S,3R)-9,10-Seco-24a,24b-dihomo-(24aE)-5,7,10(19),24a-cholestatetraen-1,3,25-triol], for which the “activity in inducing differentiation and maturation of the HL-60 cells (in words)” value in assay [1] is “equally active”. The “binding to the DBP relative to calcitriol” value in assay [2] worked out at 3.5%. Moreover, the “affinity towards the VDR, times that of calcitriol” value in assay [3] is recorded as 9 times that of calcitriol.

The values above are taken from patent publication US5817648A, “Vitamin D3 analogues having an unsaturated side chain” (Duphar International Research B.V., priority 1995, dated 1998).
